Active and inactive are the calls of the source. No cut-off for these calls is given here.
Experiments:
Pseudomonas aeruginosa [1] = assay: Antibacterial activity against Pseudomonas aeruginosa PAO1 assessed as inhibition of bacterial growth incubated for 24 hrs by serial dilution method; type: functional
Pseudomonas aeruginosa [2] = assay: Antibiofilm activity against Pseudomonas aeruginosa PAO1 assessed as inhibition of biofilm formation incubated for 24 hrs by crystal violet staining based analysis; type: functional, organism-based
Pseudomonas aeruginosa [3] = assay: Antibiofilm activity against Pseudomonas aeruginosa PA14 assessed as inhibition of biofilm formation incubated for 24 hrs by crystal violet staining based analysis; type: functional, organism-based; settings: PA14, 24 h
Pseudomonas aeruginosa [4] = assay: Antibiofilm activity against Pseudomonas aeruginosa PAO1 assessed as inhibition of biofilm formation at 0.15625 to 2.5 uM incubated for 24 hrs by crystal violet staining based analysis; type: functional, organism-based; settings: dose 0.15625-2.5 µM
Pseudomonas aeruginosa [5] = assay: Antibiofilm activity against Pseudomonas aeruginosa PAO1 assessed as decrease in biofilm formation incubated for 24 hrs by crystal violet staining based analysis; type: functional, organism-based; settings: dose 0.3125-10 µM
Pseudomonas aeruginosa [6] = assay: Antibiofilm activity against Pseudomonas aeruginosa PAO1 assessed as decrease in colony forming counts incubated for 24 hrs by crystal violet staining based analysis; type: functional, organism-based; settings: dose 0.15625-2.5 µM
Pseudomonas aeruginosa [7] = assay: Antibiofilm activity against Pseudomonas aeruginosa PA1121 assessed as inhibition of biofilm formation incubated for 24 hrs by crystal violet staining based analysis; type: functional, organism-based
Pseudomonas aeruginosa [8] = assay: Antibiofilm activity against Pseudomonas aeruginosa PA1129 assessed as inhibition of biofilm formation incubated for 24 hrs by crystal violet staining based analysis; type: functional, organism-based
Pseudomonas aeruginosa [9] = assay: Antibiofilm activity against Pseudomonas aeruginosa PA108 assessed as inhibition of biofilm formation incubated for 24 hrs by crystal violet staining based analysis; type: functional, organism-based
Pseudomonas aeruginosa [10] = assay: Antivirulence activity in Pseudomonas aeruginosa PAO1 assessed as reduction in pyocyanin at 10 uM production incubated for 24 hrs relative to control; type: functional; parameters: scale not given: the % may be the effect or the level left
Pseudomonas aeruginosa [11] = assay: Antivirulence activity in Pseudomonas aeruginosa PAO1 assessed as reduction in pyocyanin production incubated for 24 hrs; type: functional, organism-based; settings: dose 10.0 µM
Pseudomonas aeruginosa [12] = assay: Antivirulence activity in Pseudomonas aeruginosa PAO1 assessed as reduction in extracellular polysaccharides production incubated for 24 hrs; type: functional, organism-based; settings: dose 0.3125-10 µM
Pseudomonas aeruginosa [13] = assay: Antivirulence activity in Pseudomonas aeruginosa PAO1 assessed as reduction in extracellular polysaccharides production at 10 uM incubated for 24 hrs relative to control; type: functional; parameters: scale not given: the % may be the effect or the level left
[14] = Inhibition of quorum sensing system in Pseudomonas aeruginosa PAO1-gfp assessed as reduction in fluorescence intensity at 0.3125 to 10 uM measured upto 16 hrs by GFP reporter strain assay; settings: dose 0.3125-10 µM
[15] = Inhibition of quorum sensing system in Pseudomonas aeruginosa PAO1-lasB-gfp assessed as reduction in fluorescence intensity at 0.3125 to 10 uM measured upto 16 hrs by GFP reporter strain assay; settings: dose 0.3125-10 µM
[16] = Inhibition of quorum sensing system in Pseudomonas aeruginosa PAO1-pqsa-gfp assessed as reduction in fluorescence intensity at 0.3125 to 10 uM measured upto 16 hrs by GFP reporter strain assay; settings: dose 0.3125-10 µM
Pseudomonas aeruginosa [17] = assay: Antibiofilm activity against Pseudomonas aeruginosa PAO1 assessed as reduction in pFe(III) content incubated for 24 hrs by cell total iron colorimetric assay; type: functional, organism-based; settings: dose 0.3125-10 µM
Pseudomonas aeruginosa [18] = assay: Antibiofilm activity against Pseudomonas aeruginosa PAO1 assessed as increase in pyoverdine level incubated for 2 hrs by fluorescence based analysis; type: functional, organism-based; settings: dose 0.3125-10 µM
Pseudomonas aeruginosa [19] = assay: Antibiofilm activity against Pseudomonas aeruginosa PAO1 assessed as increase in pyochelin level incubated for 2 hrs by fluorescence based analysis; type: functional, organism-based; settings: dose 0.3125-10 µM
Pseudomonas aeruginosa [20] = assay: Antibiofilm activity against Pseudomonas aeruginosa PAO1 assessed as fold increase in pyoverdine level at 10 uM incubated for 2 hrs by fluorescence based analysis; type: functional
Pseudomonas aeruginosa [21] = assay: Anti-motility activity against Pseudomonas aeruginosa PAO1 assessed as reduction in swimming motility incubated for 24 hrs; type: functional, organism-based; settings: dose 0.3125-10 µM
Pseudomonas aeruginosa [22] = assay: Anti-motility activity against Pseudomonas aeruginosa PAO1 assessed as reduction in swarming motility at 10 uM incubated for 24 hrs relative to control; type: functional; parameters: scale not given: the % may be the effect or the level left
Pseudomonas aeruginosa [23] = assay: Anti-motility activity against Pseudomonas aeruginosa PAO1 assessed as reduction in swimming motility at 10 uM incubated for 24 hrs relative to control; type: functional; parameters: scale not given: the % may be the effect or the level left
Pseudomonas aeruginosa [24] = assay: Anti-motility activity against Pseudomonas aeruginosa PAO1 assessed as reduction in pili formation at 0.3125 to 10 uM incubated for 16 hrs by SEM analysis; type: functional, organism-based; settings: dose 0.3125-10 µM
[25] = Hemolytic activity in mouse red blood cells at < 40 uM; type: toxicity, cell-based; settings: erythrocyte
[26] = Hemolytic activity in rabbit red blood cells at < 40 uM; type: toxicity, cell-based, Oryctolagus cuniculus; settings: erythrocyte
[27] = Toxicity in zebrafish assessed as survival rate at <100 uM measured upto 120 hrs; parameters: species or system Danio rerio; settings: in vivo
Pseudomonas aeruginosa [28] = assay: Synergistic […] activity against Pseudomonas aeruginosa PAO1 assessed as fractional inhibitory concentration index measured for 20 hrs in presence of ciprofloxacin by microdilution checkboard assay; type: functional
Pseudomonas aeruginosa [29] = assay: Synergistic […] activity against Pseudomonas aeruginosa PAO1 assessed as fractional inhibitory concentration index measured for 20 hrs in presence of tobramycin by microdilution checkboard assay; type: functional
Pseudomonas aeruginosa [30] = assay: Antibiofilm activity against Pseudomonas aeruginosa PAO1 assessed as inhibition of biofilm formation at 2.5 incubated for 24 hrs by crystal violet staining based analysis; type: functional
Pseudomonas aeruginosa [31] = assay: Antibacterial activity against Pseudomonas aeruginosa PAO1 infected in BALB/c mouse wound infection model assessed as reduction in wound area at 2.5 uM administered to wound once a day for 3 days and measured after 9 days in dropwise manner in presence of Tob; type: functional; parameters: scale not given: the % may be the effect or the level left; settings: time 12 day
[32] = Toxicity in BALB/c mouse assessed as change in body weight; settings: in vivo
[33] = Toxicity in BALB/c mouse assessed as liver damage by H and E staining based analysis; type: tissue-based; settings: in vivo
[34] = Toxicity in BALB/c mouse assessed as spleen damage by H and E staining based analysis; type: tissue-based; settings: in vivo
[35] = Toxicity in BALB/c mouse assessed as lung damage by H and E staining based analysis; settings: in vivo
[36] = Toxicity in BALB/c mouse assessed as kidney damage by H and E staining based analysis; settings: in vivo
Pseudomonas aeruginosa [37] = assay: Antibacterial activity against Pseudomonas aeruginosa PAO1 infected in BALB/c mouse wound infection model assessed as bacterial survival rate in wound at 2.5 uM administered to wound once a day for 3 days in dropwise manner in presence of ciprofloxacin; type: functional; settings: PAO1, 72 h, time 3 day
Pseudomonas aeruginosa [38] = assay: Antibacterial activity against Pseudomonas aeruginosa PAO1 infected in BALB/c mouse wound infection model assessed as bacterial survival rate in wound at 1 mg/mL administered to wound once a day for 3 days in dropwise manner; type: functional; settings: PAO1, 72 h, time 3 day
Pseudomonas aeruginosa [39] = assay: Antibacterial activity against Pseudomonas aeruginosa PAO1 infected in BALB/c mouse wound infection model assessed as reduction in wound area at 2.5 uM administered to wound once a day for 3 days and measured after 9 days in dropwise manner in presence of ciprofloxacin; type: functional; parameters: scale not given: the % may be the effect or the level left; settings: time 12 day
[40] = Toxicity in BALB/c mouse wound infection model assessed as change in body weight measured for 9 days; settings: in vivo, 216 h, time 9 day
[41] = Toxicity in BALB/c mouse wound infection model assessed as liver damage measured for 9 days by H and E staining based analysis; type: tissue-based; settings: in vivo, 216 h, time 9 day
[42] = Toxicity in BALB/c mouse wound infection model assessed as spleen damage measured for 9 days by H and E staining based analysis; type: tissue-based; settings: in vivo, 216 h, time 9 day
[43] = Toxicity in BALB/c mouse wound infection model assessed as lung damage measured for 9 days by H and E staining based analysis; type: tissue-based; settings: in vivo, 216 h, time 9 day
[44] = Toxicity in BALB/c mouse wound infection model assessed as kidney damage measured for 9 days by H and E staining based analysis; type: tissue-based; settings: in vivo, 216 h, time 9 day

COc1ccc2nc(NCC(=O)NCCCCC(=O)NO)sc2c1
MIC (Pseudomonas aeruginosa [1]): > 256 µM | Activity (Pseudomonas aeruginosa [2]): Dose-dependent-effect | IC50 (Pseudomonas aeruginosa [2]; PAO1, 24 h): 400 nM | IC50 (Pseudomonas aeruginosa [3]): 1450 nM | Activity (Pseudomonas aeruginosa [4]): inactive | Activity (Pseudomonas aeruginosa [5]): Dose-dependent-effect | Activity (Pseudomonas aeruginosa [6]): Dose-dependent-effect | Activity (Pseudomonas aeruginosa [7]): Active | Activity (Pseudomonas aeruginosa [8]): Active | Activity (Pseudomonas aeruginosa [9]): Active | Activity (Pseudomonas aeruginosa [10]): 42% | Activity (Pseudomonas aeruginosa [11]): Dose-dependent-effect | Activity (Pseudomonas aeruginosa [12]): Dose-dependent-effect | Activity (Pseudomonas aeruginosa [13]): 58% | inhibition [14]: inactive | inhibition [15]: Active | inhibition [16]: Active | Activity (Pseudomonas aeruginosa [17]): Dose-dependent-effect | Activity (Pseudomonas aeruginosa [18]): Dose-dependent-effect | Activity (Pseudomonas aeruginosa [19]): Dose-dependent-effect | fold change (FC) (Pseudomonas aeruginosa [20]): 3.4 | Activity (Pseudomonas aeruginosa [21]): Dose-dependent-effect | Activity (Pseudomonas aeruginosa [22]): 84% | Activity (Pseudomonas aeruginosa [23]): 64% | Activity (Pseudomonas aeruginosa [24]): Active | Activity [25]: Non-toxic | Activity [26]: Non-toxic | Activity [27]: Non-toxic | fractional inhibitory concentration index (FICI) (Pseudomonas aeruginosa [28]): 0.25 | fractional inhibitory concentration index (FICI) (Pseudomonas aeruginosa [29]): 0.29 | inhibition (INH) (Pseudomonas aeruginosa [30]): 65% | Activity (Pseudomonas aeruginosa [31]): 35% | Activity [32]: Non-toxic | Activity [33]: Non-toxic | Activity [34]: Non-toxic | Activity [35]: Non-toxic | Activity [36]: Non-toxic | survival at 2.5 µM (Pseudomonas aeruginosa [37]): 0.45% | survival at 1000 µg/mL (Pseudomonas aeruginosa [38]): 0% | Activity (Pseudomonas aeruginosa [39]): 38% | Activity [40]: Non-toxic | Activity [41]: Non-toxic | Activity [42]: Non-toxic | Activity [43]: Non-toxic | Activity [44]: Non-toxic
